These results are taken from patent publication US20230081426A1, “COMPOUNDS AND METHODS FOR KRAS MODULATION AND INDICATIONS THEREFOR” (Plexxikon Inc., priority 2020, published 2023).

The target of experiment [1] is T1, G12D-mutant human KRAS (amino acid residues 1-188) (Homo sapiens, UniProt P01116, G12D).
T1 construct: G12D or G12C-mutant human KRAS (amino acid residues 1-188) with FLAG tag; made in house; host or cells: E. coli
The experiment can be described thus: KRAS Binding Disruption Assay (AlphaScreen; biotinylated KRpep-2d analogue or RAF1-RBD), G12D. The note with it: KRAS G12D; geometric mean; read-out: KRAS GMean IC50 (uM) MUTATION: G12D. Put shortly: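 Displacement format with mutant KRAS, biotinylated KRpep-2d analogue or RAF1-RBD (5-20 nM each) at pH 7.5 with 5 mM MgCl2.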
In general terms: In Alpha technology, singlet oxygen from a donor bead excites a nearby acceptor bead.

Experiment [2] concerns the target T2, G12V-mutant human KRAS (amino acid residues 1-188) (Homo sapiens, UniProt P01116, G12V).
T2 construct: G12V-mutant human KRAS (amino acid residues 1-188) with FLAG tag was purified from E. coli; made in house; host or cells: E. coli
The experiment can be described thus: KRAS Binding Competition Assay (AlphaScreen; biotinylated KRpep-2d analogue), G12V. The note with it: geometric mean, read-out: KRAS GMean IC50 (uM) MUTATION: G12V.

`CN1CCC[C@H]1COc1nc(N2C[C@H]3CC[C@@H](C2)N3)c2ccc(-c3cc([N+](=O)[O-])cc4ccccc34)cc2n1` [P-0339, 4-((1R,5S)-3,8-diazabicyclo[3.2.1]octan-3-yl)-2-(((S)-1-methylpyrrolidin-2-yl)methoxy)-7-(3-nitronaphthalen-1-yl)quinazoline]: the IC50 in experiment [1] and in experiment [2] was 10 to 100 µM each time.

With `CN1CCC[C@H]1COc1nc(N2C[C@H]3CC[C@@H](C2)N3)c2ccc(-c3cc(N)cc4ccccc34)cc2n1` [P-0340, 4-(4-((1R,5S)-3,8-diazabicyclo[3.2.1]octan-3-yl)-2-(((S)-1-methylpyrrolidin-2-yl)methoxy)quinazolin-7-yl)naphthalen-2-amine], the IC50 (commonly the concentration at which inhibition is half-maximal) in experiment [1] is 0.0001 to 10 µM; in experiment [2] it was 10 to 100 µM.

With `Cc1c(N)cccc1-c1ccc2c(N3C[C@H]4CC[C@@H](C3)N4)nc(OC[C@@H]3CCCN3C)nc2c1` [P-0341, 3-(4-((1R,5S)-3,8-diazabicyclo[3.2.1]octan-3-yl)-2-(((S)-1-methylpyrrolidin-2-yl)methoxy)quinazolin-7-yl)-2-methylaniline], the results for the IC50 in experiment [1] and in experiment [2] were 100 to 1000 µM and 10 to 100 µM, respectively.

Regarding `CN1CCC[C@H]1COc1nc(N2C[C@H]3CC[C@@H](C2)N3)c2ccc(-c3c(O)cccc3Cl)cc2n1` [P-0342, 2-(4-((1R,5S)-3,8-diazabicyclo[3.2.1]octan-3-yl)-2-(((S)-1-methylpyrrolidin-2-yl)methoxy)quinazolin-7-yl)-3-chlorophenol], the values for the IC50 in experiment [1] and in experiment [2] were 0.0001 to 10 µM and 10 to 100 µM, respectively.

`Cc1cccc(N)c1-c1ccc2c(N3C[C@H]4CC[C@@H](C3)N4)nc(OC[C@@H]3CCCN3C)nc2c1` [P-0343, 2-(4-((1R,5S)-3,8-diazabicyclo[3.2.1]octan-3-yl)-2-(((S)-1-methylpyrrolidin-2-yl)methoxy)quinazolin-7-yl)-3-methylaniline]: the IC50 in experiment [1] and in experiment [2] was 10 to 100 µM each time.

As to `CN1CCC[C@H]1COc1nc(N2C[C@H]3CC[C@@H](C2)N3)c2cc(F)c(N3CC(O)Cc4ccccc43)c(F)c2n1` (stereo partly drawn) [P-0344, 1-(4-((1R,5S)-3,8-diazabicyclo[3.2.1]octan-3-yl)-6,8-difluoro-2-(((S)-1-methylpyrrolidin-2-yl)methoxy)quinazolin-7-yl)-1,2,3,4-tetrahydroquinolin-3-ol], the IC50 was 0.0001 to 10 µM in experiment [1] and 100 to 1000 µM in experiment [2].

Take `CN1CCC[C@H]1COc1nc(N2[C@@H]3CC[C@H]2CN(CC(=O)C2CCNCC2)C3)c2ccc(-c3cc(O)cc4ccccc34)cc2n1` [P-0345, 2-((1R,5S)-8-(7-(3-hydroxynaphthalen-1-yl)-2-(((S)-1-methylpyrrolidin-2-yl)methoxy)quinazolin-4-yl)-3,8-diazabicyclo[3.2.1]octan-3-yl)-1-(piperidin-4-yl)ethan-1-one]: the IC50 in experiment [1] is 0.0001 to 10 µM; in experiment [2], 10 to 100 µM.

As for `CN1CCC[C@H]1COc1nc(N2[C@@H]3CC[C@H]2CN(CC(O)CN2CCOCC2)C3)c2ccc(-c3cc(O)cc4ccccc34)cc2n1` (stereo partly drawn) [P-0346, 4-(4-((1R,5S)-3-(2-hydroxy-3-morpholinopropyl)-3,8-diazabicyclo[3.2.1]octan-8-yl)-2-(((S)-1-methylpyrrolidin-2-yl)methoxy)quinazolin-7-yl)naphthalen-2-ol], the IC50 in experiment [1] was in the range of 0.0001 to 10 µM; in experiment [2] it was 10 to 100 µM.

For `CN1CCC[C@H]1COc1nc(N2[C@@H]3CC[C@H]2CN(C(=O)Nc2cnc[nH]2)C3)c2ccc(-c3cc(O)cc4ccccc34)cc2n1` [P-0347, (1R,5S)-8-(7-(3-hydroxynaphthalen-1-yl)-2-(((S)-1-methylpyrrolidin-2-yl)methoxy)quinazolin-4-yl)-N-(1H-imidazol-5-yl)-3,8-diazabicyclo[3.2.1]octane-3-carboxamide], the IC50 in experiment [1] and in experiment [2] was 0.0001 to 10 µM in each case.

`CN1CCC[C@H]1COc1nc(N2[C@@H]3CC[C@H]2CN(CC2(O)CCNCC2)C3)c2ccc(-c3cc(O)cc4ccccc34)cc2n1` [P-0348, 4-(((1R,5S)-8-(7-(3-hydroxynaphthalen-1-yl)-2-(((S)-1-methylpyrrolidin-2-yl)methoxy)quinazolin-4-yl)-3,8-diazabicyclo[3.2.1]octan-3-yl)methyl)piperidin-4-ol]: the half-inhibitory concentration (IC50) in experiment [1] and in experiment [2] was 10 to 100 µM each time.

In the case of `CN1CCC[C@H]1COc1nc(N2[C@@H]3CC[C@H]2CN(C(=N)NC#N)C3)c2ccc(-c3cc(O)cc4ccccc34)cc2n1` [P-0349, (1R,5S)-N-cyano-8-(7-(3-hydroxynaphthalen-1-yl)-2-(((S)-1-methylpyrrolidin-2-yl)methoxy)quinazolin-4-yl)-3,8-diazabicyclo[3.2.1]octane-3-carboximidamide], the IC50 is 10 to 100 µM in experiment [1] and 0.0001 to 10 µM in experiment [2].

Turning to `CN1CCC[C@H]1COc1nc(N2[C@@H]3CC[C@H]2CN(C(=O)c2c[nH]cn2)C3)c2ccc(-c3cc(O)cc4ccccc34)cc2n1` [P-0350, ((1R,5S)-8-(7-(3-hydroxynaphthalen-1-yl)-2-(((S)-1-methylpyrrolidin-2-yl)methoxy)quinazolin-4-yl)-3,8-diazabicyclo[3.2.1]octan-3-yl)(1H-imidazol-4-yl)methanone], the IC50 in experiment [1] fell in the range of 10 to 100 µM; in experiment [2], 0.0001 to 10 µM.

Consider `O=C(O)CC(=O)N1[C@@H]2CC[C@H]1CN(c1nc(OCC34CCCN3CCC4)nc3c(F)c(-c4cc(O)cc5ccccc45)ccc13)C2` [P-0353, 3-((1R,5S)-3-(8-fluoro-7-(3-hydroxynaphthalen-1-yl)-2-((tetrahydro-1H-pyrrolizin-7a(5H)-yl)methoxy)quinazolin-4-yl)-3,8-diazabicyclo[3.2.1]octan-8-yl)-3-oxopropanoic acid], for which the IC50 in experiment [1] and in experiment [2] was 0.0001 to 10 µM in each case.

Regarding `CN(C)c1ccc(/C=C/c2nc(N3C[C@H]4CC[C@@H](C3)N4)c3cc(Cl)c(-c4c(O)cccc4F)c(F)c3n2)cc1` [P-0355, 2-(4-((1R,5S)-3,8-diazabicyclo[3.2.1]octan-3-yl)-6-chloro-2-((E)-4-(dimethylamino)styryl)-8-fluoroquinazolin-7-yl)-3-fluorophenol], the IC50 in experiment [1] and in experiment [2] was 0.0001 to 10 µM throughout.

In the case of `CN1CCC[C@H]1COc1nc(N2CC3COCC(C2)N3)c2cc(Cl)c(-c3cc(O)cc4ccccc34)c(F)c2n1` [P-0357, 4-(4-(3-oxa-7,9-diazabicyclo[3.3.1]nonan-7-yl)-6-chloro-8-fluoro-2-(((S)-1-methylpyrrolidin-2-yl)methoxy)quinazolin-7-yl)naphthalen-2-ol], the IC50 in experiment [1] and in experiment [2] was 0.0001 to 10 µM each time.

Consider `CN1CCC[C@H]1COc1nc(N2CC3COCC(C2)N3C(=O)CC2SC(=O)NC2=O)c2cc(Cl)c(-c3cc(O)cc4ccccc34)c(F)c2n1` (stereo partly drawn) [P-0358, 5-(2-(7-(6-chloro-8-fluoro-7-(3-hydroxynaphthalen-1-yl)-2-(((S)-1-methylpyrrolidin-2-yl)methoxy)quinazolin-4-yl)-3-oxa-7,9-diazabicyclo[3.3.1]nonan-9-yl)-2-oxoethyl)thiazolidine-2,4-dione], for which the IC50 in experiment [1] and in experiment [2] was 0.0001 to 10 µM each time.

In the case of `Cc1cccc2c1N(c1ccc3c(N4C[C@H]5CC[C@@H](C4)N5)nc(OC[C@@H]4CCCN4C)nc3c1F)CC(O)C2` (stereo partly drawn) [P-0360, 1-(4-((1R,5S)-3,8-diazabicyclo[3.2.1]octan-3-yl)-8-fluoro-2-(((S)-1-methylpyrrolidin-2-yl)methoxy)quinazolin-7-yl)-8-methyl-1,2,3,4-tetrahydroquinolin-3-ol], the IC50 lay in the range of 0.0001 to 10 µM in experiment [1] and 10 to 100 µM in experiment [2].
